Consider 2 compounds from EP1242084B1, “TREATMENT OF BREAST CARCINOMAS, ASTROCYTOMAS, MELANOMAS AND RELATED TUMORS” (priority 2000, dated 2001).

One assay deals with AML-3 patients. The conditions noted are these: oral, alone; cited from earlier work.
Assay [1] has as its system human Burkitt's lymphoma (RAJI) cells. The assay can be described thus: Inhibition of proliferation of RAJI cells, MTS assay. It counts as cell-based. The conditions noted are these: 900 mcg/ml, 72 hours, statistically significant, read-out: reduction in number of cells which were active. The method, then: To determine the inhibitory effect of pirfenidone concentrations on Burkitt's lymphoma (RAJI) cells, a MTS assay was used which incorporates a tetrazolium dye that measures the cellular conversion of the dye into a formazan product by the activation of NADH-generating dehydrogenases found in metabolically active cells.
(§1) • 1. 100 microl. of cells was seeded into 96 well plates at 1X10^5 cells/ml in media containing 100 mcg/ml, 300 mcg/ml and 900 mcg/ml of pirfenidone, as well as a pirfenidone-free media control. • 2. Cells were incubated at 37 degrees C, at 5.0% CO2 for 72 hours. • 3. After incubation a standard curve was made of 100 microliters of cells added to the plate at 5X10^5 cells/ml making 1:2 dilutions all the way down to a pre-set degree of dilution. • 4. 2.0 mls of the MTS solution was mixed with a 100 microliter of the PMS solution, and 20 microliters of this combined dye solution was added to each well and incubated at 37 degrees C, 5.0% CO2 for 3 hours. • 5. Subsequently the absorbance was read at 490 nm.
A general note: Tetrazolium assays rely on reduction of a dye to a coloured formazan, in cell work by metabolically active cells.

The subject of assay [2] is human pro-myelocytic leukemia (HL-60 cells). The assay can be described thus: Inhibition of proliferation of HL-60 cells, Trypan Blue cell counts. The following applies: 1400 micrograms/ml. It counts as cell-based. The text has this: […] Five ml of each pirfenidone concentration, and of the control were placed into a T25 tissue culture flask along with 1X10^5 cells. Every day for 4 days an aliquote from each flask was taken out, then stained with Trypan Blue, and counts were repeated three times on each aliquote.

The test system of assay [3] is human T-cell leukemia (JURKAT) cells. Description: Inhibition of proliferation of JURKAT cells, MTS assay. The following applies: 900 mcg/ml, 72 hours, statistically significant, read-out: reduction in number of cell which were active. The class given is cell-based. The method, then: as §1, with “To determine the inhibitory effect of pirfenidone concentrations on human T-cell leukemia (JURKAT), a MTS assay was used which incorporates a tetrazolium dye that measures the cellular conversion of the dye into a formazan product by the activation of NADH-generating dehydrogenases found in metabolically active cells. Procedure: • 1.” for “• 1.”

Another assay deals with HUMAN LEIOMYOMA CELLS. The assay can be described thus: Leiomyoma cell proliferation and viability, day 7 cell counts with Trypan Blue stain. The following applies: for RECENT CELLS LEIOMYOMA: day 7 (control 0.0 MG: 9.0). Further details: RECENT CELLS LEIOMYOMA: unit not given here. It counts as cell-based. Here is the method: Leiomyoma tissues were obtained from several premenopausal women with symptomatic uterine fibroids at elective hysterectomy, and who were not receiving any hormonal or other drug therapy. The fibroid tissues were minced into 1 - 2 mm\# explants and placed in suitable DMEM supplemented with 10% bovine serum. The fibroid tissue was digested for 14 -18 hours at 37 degrees C in an incubator. After centrifugation, a resulting cell pellet was resuspended in DMEM and then placed in culture flasks.
Leiomyoma cells were plated in 100mm dishes (100,000 each dish) and allowed to attach overnight in DMEM plus 10% fetal bovine serum until they reached 80-90% confluence.

With `CC1=C(/C=C/C(C)=C/C=C/C(C)=C/C(=O)O)C(C)(C)CCC1` [All-trans-retinoic acid], in the assay on AML-3 patients, the clinical outcome is reported as “complete remission”.
Turning to `Cc1ccc(=O)n(-c2ccccc2)c1` [pirfenidone], the inhibition at 900 µg/mL is 45% in assay [1] and 75% in assay [3]. For the same compound, in assay [2], the “Inhibition of proliferation as well as deaths of cells” value was “deaths of almost all cells”. Moreover, the “RECENT CELLS LEIOMYOMA” value was found to be 8.0 in the assay on HUMAN LEIOMYOMA CELLS (0.01 MG/ML), 10.0 in the assay on HUMAN LEIOMYOMA CELLS (0.1 MG/ML), 6.0 in the assay on HUMAN LEIOMYOMA CELLS (0.3 MG/ML) and 16.0 in the assay on HUMAN LEIOMYOMA CELLS (1.0 MG/ML). For the same compound, in the assay on HUMAN LEIOMYOMA CELLS (Homo sapiens, 168 h, read-out: percentage of dead leiomyoma cells), the cytotoxicity at 1000 µg/mL came out at 16%. Besides, the “inhibitory effect on proliferation” value with HUMAN LEIOMYOMA CELLS (graded concentrations in the culture media, 7 days) is recorded as “significant inhibitory effect”.
